Source: patent US11331375B2, “Compositions and methods for regulating leukocyte adhesion” (University of Virginia Patent Foundation, priority 2015, dated 2022)

Assays:
VCAM1 = VCAM1 expression in isolated mesenteric venules; format: cell-based, mouse; conditions: EC Panx1 KO venules, TNFα 50 ng/mL, exogenous ATP
Description: Male VECadER^T2+/Panx1^fl/fl mice (Tamoxifen or Peanut oil injected) were euthanized by CO2 asphyxiation and subsequent cervical dislocation. Prior to tissue harvesting, fixation was performed by perfusing room temperature 4% paraformaldehyde (PFA) made in PBS through the heart. The mesentery was immediately excised and 2nd order venules were dissected free of surrounding fat and connective tissue and place in 4% PFA for 30 minutes before transfer to 70% ethanol for paraffin embedding. Paraffin sections (4-5 μm in thickness) were de-paraffinized and processed for immunocytochemistry as previously described^10. […]
Following stimulation with TNFα (in vitro: 10 ng/mL; ex vivo: 50 ng/mL), confluent endothelial cell monolayers or isolated mesenteric venules were homogenized in ice cold Triton extraction buffer (50 mM Tris-HCL, 150 mM NaCl , 5 mM EDTA, 1% deoxycholate, 1% NP-40 and 1% Triton-X100 in phosphate buffered saline and pH adjusted to 7.4) containing protease and phosphatase inhibitors. […] Protein concentration was quantified using the BCA method. […] Membranes were then washed and incubated with LiCOR secondary antibodies (1:10,000) and visualized and quantitated using LiCOR Odyssey. […] Data are expressed as mean±SEM (n=3 independent experiments).

HUVEC = assay: In vitro ATP release assay (luciferin:luciferase), HUVEC; format: cell-based, human; conditions: HUVEC
Description: (§1) In vitro Human arterial and venous ECs were seeded in 24-well plates pre-coated with 0.2% gelatin and grown to confluency. On the day of experiment, the media was removed from each well and cells were carefully washed twice with warm serum free basal EC medium supplemented with 1% BSA. Cells were then incubated in 300 μL of fresh basal EC medium supplemented with 1% BSA for 30 minutes at 37° C. to allow degradation of extracellular ATP released due to mechanical stimulation during washes. Endogenous ecto-nucleotidases were inhibited by incubating EC monolayers with 300 μM ARL 67156 (Tocris) for 30 minutes at 37° C. Cells were then stimulated with recombinant human TNFα (R&D Systems). For dose response experiments, ECs were incubated with 0.1, 1, 5, 10, 50, or 100 ng/mL recombinant TNFα for 30 minutes at 37° C. For time-course experiments, ECs were stimulated with 10 ng/mL recombinant TNFα for different time points up to 1 hour. In experiments where pharmacological inhibitors were employed, ECs were incubated with antagonists in parallel with ARL 67156 for 30 minutes. To inhibit TNFR1, ECs were incubated with the peptide antagonist of the receptor WP9QY (10 μM; Anaspec). […] Cx hemichannels were inhibited with lanthanum (La^3+; 100 μM; Sigma) and Panx1 channels were blocked with carbenoxolone (CBX; 50 μM; Sigma) and the inhibitory peptide ^10panx1 (200 μM; Genscript). […] The role of caspase activation was assessed by inhibition with the pan-caspase blocker Q-VD-OPh (100 μM; Sigma). Following stimulation with TNFα or vehicle, 150 μL of the cell supernatant was collected and immediately placed into pre-chilled 1.5 mL Eppendorf tubes on ice. All samples were centrifuged at 10,000×g for 5 minutes and 50 μL of each sample was transferred to a white, opaque 96-well plate. Using a FluoStar Omega luminometer, 50 μL of luciferin:luciferase reagent (ATP bioluminescence assay kit HSII; Roche) was injected into each well and luminescence was recorded following a 5s orbital mix. ATP concentration in each sample was calculated from a standard curve for all experiments. Data are presented as a % change in ATP release from baseline (i.e. unstimulated cells) and expressed as mean±SEM (n=5 independent experiments with triplicate measurements).

HSaVEC = assay: In vitro ATP release assay (luciferin:luciferase), HSaVEC; format: cell-based, human; conditions: HSaVEC
Description: as §1

Cx43 hemichannels = assay: Cell surface biotinylation after BFA, Cx43; format: cell-based, human; conditions: HUVEC and HSaVEC; BFA 5 μg/mL, 5 hour
Description: (§2) Cell surface biotinylation was performed as described previously^15. To deplete Cx43 hemichannels from the EC plasma membrane, venous and arterial ECs were grown to confluency in 6-well plates (Western blotting) or 24-well plates (ATP release) and treated with the vesicular exocytosis inhibitor brefeldin A (BFA; 5 μg/mL) for 5 hours at 37° C. Cells were washed once with cold 1× PBS and incubated with cold DMEM (without FBS) and 50 μM CBX at 4° C. for 30 minutes. CBX was added to prevent biotin from passing through Panx1 channels, which may label intracellular proteins. Cells were washed with PBS and incubated at 4° C. for 1 hour in cold PBS (1.5 mL/dish) containing EZ-link-sulfo-NHS-LC-biotin (1 mg/mL) and CBX (50 μM). The cells were washed again with PBS and lysed in PBS-T (PBS+0.5-1% Triton-X 100) containing protease inhibitors. Total protein was quantified using the BCA assay and equal amounts of protein were incubated with Streptavidin-agarose beads for 2 hours at 4° C. to pull down biotinylated (cell surface) proteins. Beads were then washed 5 times with 1× PBS-T, pelleted by centrifugation and proteins eluted by incubation with 5x sample buffer. Eluted proteins were subjected to SDS-PAGE and Western blotting for detection of Cx43 and Panx1.

Panx1 = assay: Cell surface biotinylation after BFA, Panx1; format: cell-based, human; conditions: HUVEC and HSaVEC; BFA 5 μg/mL, 5 hour
Description: as §2

[1] = BFA 5 μg/mL for 5 hours, TNFα 10 ng/mL 30 min

Compound | VCAM1 upregulation in Panx1 KO mice venules (VCAM1) | TNFα-induced ATP release after Cx hemichannel depletion (HUVEC; [1]) | effect of inhibitor on TNFα-induced ATP release (HUVEC; antagonist 30 min, WP9QY 10 μM, La3+ 100 μM, BFA 5 μg/mL, RuR 20 μM, PP2/PP3 10 μM, Q-VD-OPh 100 μM) | TNFα-induced ATP release after Cx hemichannel depletion (HSaVEC; [1]) | effect of inhibitor on TNFα-induced ATP release (HSaVEC; antagonist 30 min, WP9QY 10 μM, BFA 5 μg/mL, RuR 20 μM, PP2/PP3 10 μM) | expression of Cx43 at the EC surface (Cx43 hemichannels) | expression of Panx1 at the EC surface (Panx1)
Nc1ncnc2c1ncn2[C@@H]1O[C@H](COP(=O)(O)OP(=O)(O)OP(=O)(O)O)[C@@H](O)[C@H]1O [ATP, adenosine 5′ triphosphate] | rescued | – | – | – | – | – | –
C[C@H]1CCC/C=C/[C@@H]2C[C@H](O)C[C@H]2[C@H](O)/C=C/C(=O)O1 [BFA, brefeldin A] | – | unaffected | ruled out the involvement | unaffected | ruled out the involvement | decreased | without significantly altering
